Source: article PMC10607100, “Anticancer and Antiphytopathogenic Activity of Fluorinated Isatins and Their Water-Soluble Hydrazone Derivatives” (International Journal of Molecular Sciences, 2023)
Read-outs that look alike come from different tables or passages of the source.

Legend:
Format in all cases: cell-based
[1] = test system: Phytophthora cactorum VKM F-985; test: Mycelial radial growth inhibition; details: for inhibition of growth at 3 µM: 3 nmol/mL; for inhibition of growth at 3 µM / inhibition of growth at 7 µM / inhibition of growth / inhibition of growth at 40 µM: read-out: Inhibition value, I (%); for inhibition of growth at 7 µM: 7 nmol/mL; for inhibition of growth: 27 nmol/mL; for inhibition of growth at 40 µM: 40 nmol/mL
From the text: (§1) Plant pathogenic bacterial strains Micrococcus luteus B-109, Pectobacterium atrosepticum 1043, Pectobacterium carotovorum subsp. carotovorum MI, Pseudomonas fluorescens EL-2.1, and Xanthomonas campestris B-610 and the fungal strain Fusarium oxysporum IBPPM 543 were from the Collection of Rhizosphere Microorganisms, IBPPM RAS (WFCC no. 975, WDCM no. 1021) (CM IBPPM, http://collection.ibppm.ru). The pathogenic fungus Phytophthora cactorum VKM F-985, provided by the All-Russian Collection of Microorganisms (VKM) and deposited at the A.E. Favorsky Irkutsk Institute of Chemistry, SB RAS, was also used as a test organism. Bacteria M. luteus, P. carotovorum subsp. carotovorum, P. atrosepticum, and P. fluorescens were grown in a meat–peptone medium (BP), and X. campestris was grown in the medium with glucose, yeast extract, and calcium carbonate (GYCa). Solid media contained Bacto agar (18 g/L); pH was adjusted to 7.2–7.4. All bacterial cultures were grown at 28 °C. The mycelial cultures of F. oxysporum and P. cactorum were grown on a glucose–peptone–yeast (GPY) nutrient medium at 27 °C. For inoculum preparation, both fungal strains were initially grown on the agar GPY in Petri dishes and then transferred into the seed medium by punching out 5 mm of the agar plate culture with a self-designed cutter.
(§2) For the fungicidal activity analysis, radial growth (colony diameters) of the fungi on a solid medium in the absence and in the presence of the compounds 5a–e and 7a–c solutions at various concentrations were compared. The method consisted of the following: A sterile GPY agar medium (20.0 mL), which was melted and then allowed to cool to approximately 60 °C, was mixed with the precisely measured volumes of the solutions under question and poured into a sterile Petri dish (90 mm i.d.). After the solidification of GPY agar, the media were inoculated by the fungus using 10-day-old cultures of F. oxysporum or P. cactorum. The inoculation was conducted by transferring a 5-mm (i.d.) GPY-agar block covered with mycelium to the center of the Petri dish, followed by incubation in a thermostat at 27 °C. The fungicidal effect was scored by the size of the mycelium colony on a Petri dish compared to the control without fungicidal admixtures to GPY agar. Each treatment was performed in at least four replicates in two independent experiments. The observation period ended when the control Petri dish was filled with mycelium (usually after 12 days). […] The solutions of the compounds were prepared with a concentration of 2 mmol/L (stock solution). For comparison, test compounds were also commonly applied as disinfecting agents, and antibiotics were used as a positive control.

[2] = test system: Fusarium oxysporum IBPPM 543; test: Mycelial radial growth inhibition; details: for inhibition of growth at 1 µM: 1 nmol/mL; for inhibition of growth at 1 µM / inhibition of growth at 5 µM / inhibition of growth at 20 µM / inhibition of growth at 40 µM: read-out: Inhibition value, I (%); for inhibition of growth at 5 µM: 5 nmol/mL; for inhibition of growth at 20 µM: 20 nmol/mL; for inhibition of growth at 40 µM: 40 nmol/mL
From the text: as §1, §2

[3] = test system: five representative phytopathogens; test: Agar-well diffusion, bactericidal activity over the panel of phytopathogens; details: 36 h, 2 mM solutions; dependent on the test system used; read-out: inhibition zone width (mm), range over the test systems
From the text: as §1
(§3) The antibacterial and antifungal activities of the compounds were explored using the agar-well diffusion method and the technique of mycelial radial growth inhibition. The method of diffusion in agar (measuring the diameter of growth inhibition zones) was used to determine the bactericidal activity. The 6-mm wells were made in agar medium (GYCa for Xanthomonas campestris or BP for other bacteria). Bacterial suspensions were distributed over the agar surface, and the tested compound’s solution (150 μL) was added to each well. The width of growth inhibition zones around the wells was determined after incubation for 36–40 h.

[4] = test system: Pectobacterium carotovorum subsp. carotovorum MI; test: Agar-well diffusion, bactericidal activity; details: Pectobacterium carotovorum, 2 mM/L
From the text: as §1, §3

[5] = test system: Pseudomonas fluorescens EL-2.1; test: Agar-well diffusion, bactericidal activity; details: Pseudomonas fluorescens, EL2.1; 2 mM/L; average of 3 experiments; read-out: width of the inhibition zone (mm), Ps. fluorescens
From the text: as §1, §3

[6] = test system: Pectobacterium atrosepticum 1043; test: Agar-well diffusion, bactericidal activity; details: Pectobacterium atrosepticum, 1043; 2 mM/L; average of 3 experiments; read-out: width of the inhibition zone (mm), P. atrosepticum
From the text: as §1, §3

[7] = test system: Micrococcus luteus B-109; test: Agar-well diffusion, bactericidal activity; details: Micrococcus luteus
From the text: as §1, §3

[8] = test system: Xanthomonas campestris B-610; test: Agar-well diffusion, bactericidal activity; details: Xanthomonas campestris
Experimental: Bacteria M. luteus, P. carotovorum subsp. carotovorum, P. atrosepticum, and P. fluorescens were grown in a meat–peptone medium (BP), and X. campestris was grown in the medium with glucose, yeast extract, and calcium carbonate (GYCa). Solid media contained Bacto agar (18 g/L); pH was adjusted to 7.2–7.4. […] For inoculum preparation, both fungal strains were initially grown on the agar GPY in Petri dishes and then transferred into the seed medium by punching out 5 mm of the agar plate culture with a self-designed cutter.
as §3

[9] = Phytophthora cactorum, 72 h, age of the fungus 3 days
[10] = Phytophthora cactorum, 120 h, age of the fungus 5 days
[11] = Phytophthora cactorum, 168 h, age of the fungus 7 days
[12] = Phytophthora cactorum, 216 h, age of the fungus 9 days
[13] = Fusarium oxysporum, IBPPM543, 72 h, age of the fungus 3 days
[14] = Fusarium oxysporum, IBPPM543, 120 h, age of the fungus 5 days
[15] = Fusarium oxysporum, IBPPM543, 168 h, age of the fungus 7 days
[16] = Fusarium oxysporum, IBPPM543, 216 h, age of the fungus 9 days

Cc1ccc[n+](CC(=O)N/N=C2\C(=O)N(Cc3c(F)cccc3Cl)c3ccccc32)c1C [Compound 7b]
antagonistic effect superior to that of N-cetylpyridinium chloride ([1]; 5 days of growth): 1.3 times | antagonistic effect superior to that of fludioxonil ([1]; 5 days of growth): 1.1 times | inhibition of growth at 3 µM [1, 9]: 15% | inhibition of growth at 7 µM [1, 9]: 25% | inhibition of growth [1, 9]: 30% | inhibition of growth at 40 µM [1, 9]: 39% | EC50 ([1]; Phytophthora cactorum, 120 h, day 5, read-out: EC50, µg/mL at Day 5, P. cactorum): ≤ 28 µg/mL | inhibition of growth at 3 µM [1, 10]: 12% | inhibition of growth at 7 µM [1, 10]: 25% | inhibition of growth [1, 10]: 32% | inhibition of growth at 40 µM [1, 10]: 40% | inhibition of growth at 3 µM [1, 11]: 9% | inhibition of growth at 7 µM [1, 11]: 22% | inhibition of growth [1, 11]: 28% | inhibition of growth at 40 µM [1, 11]: 37% | inhibition of growth at 3 µM [1, 12]: 7% | inhibition of growth at 7 µM [1, 12]: 16% | inhibition of growth [1, 12]: 21% | inhibition of growth at 40 µM [1, 12]: 35% | inhibition of growth at 1 µM [2, 13]: 13% | inhibition of growth at 5 µM [2, 13]: 32% | inhibition of growth at 20 µM [2, 13]: 35% | inhibition of growth at 40 µM [2, 13]: 55% | EC50 ([2]; Fusarium oxysporum, IBPPM543, 120 h, day 5, read-out: EC50, µg/mL at Day 5, F. oxysporum): ≤ 21 µg/mL | inhibition of growth at 1 µM [2, 14]: 15% | inhibition of growth at 5 µM [2, 14]: 29% | inhibition of growth at 20 µM [2, 14]: 35% | inhibition of growth at 40 µM [2, 14]: 52% | inhibition of growth at 1 µM [2, 15]: 10% | inhibition of growth at 5 µM [2, 15]: 20% | inhibition of growth at 20 µM [2, 15]: 30% | inhibition of growth at 40 µM [2, 15]: 43% | inhibition of growth at 1 µM [2, 16]: 11% | inhibition of growth at 5 µM [2, 16]: 13% | inhibition of growth at 20 µM [2, 16]: 25% | inhibition of growth at 40 µM [2, 16]: 39% | fungicidal action stronger than N-cetylpyridinium chloride ([2]; same culture age (5 days)): 7.0 times | inhibition of Fusarium growth greater than fludioxonil ([2]; same culture age (5 days)): 4.1 times | zone of inhibition at 2000 µM [3]: 4 to 7 mm | zone of inhibition at 2000 µM ([4]; average of 3 experiments, read-out: width of the inhibition zone (mm), P. carotovorum subsp. carotovorum): 5 mm | zone of inhibition at 2000 µM ([4]; Table S3, read-out: Inhibition zone width (mm), not less): ≥ 5 mm | zone of inhibition at 2000 µM [5]: 4.5 mm | zone of inhibition at 2000 µM [6]: 4 mm | zone of inhibition at 2000 µM ([7]; B109, 2 mM/L, average of 3 experiments, read-out: width of the inhibition zone (mm), M. luteus): 7 mm | zone of inhibition at 2000 µM ([7]; B109, Table S3, 2 mM/L, read-out: Inhibition zone width (mm), not less): ≥ 7 mm | zone of inhibition at 2000 µM ([8]; B610, 2 mM/L, average of 3 experiments, read-out: width of the inhibition zone (mm), X. campestris): 7 mm | zone of inhibition at 2000 µM ([8]; B610, Table S3, 2 mM/L, read-out: Inhibition zone width (mm), not less): ≥ 7 mm
